Experimental data reported in patent US11384075B2, “Quinolinone compounds” (Janssen Pharmaceutica NV, priority 2017, dated 2022).
pIC50: −log10 of the molar value.

Legend:
[1] = target: T1, human FGFR3 wild type enzyme (cytoplasmic domain) (Homo sapiens, UniProt P22607); assay: FGFR3 wild type mobility shift assay (enzymatic assay); type: biochemical; details: 75 μM ATP, 50 minutes at 30° C., Caliper EZ reader II
T1 construct: human FGFR3 wild type enzyme (cytoplasmic domain, from Carna Biosciences); purchased Carna Biosciences
T1 sequence (P22607 397-806 limits assumed): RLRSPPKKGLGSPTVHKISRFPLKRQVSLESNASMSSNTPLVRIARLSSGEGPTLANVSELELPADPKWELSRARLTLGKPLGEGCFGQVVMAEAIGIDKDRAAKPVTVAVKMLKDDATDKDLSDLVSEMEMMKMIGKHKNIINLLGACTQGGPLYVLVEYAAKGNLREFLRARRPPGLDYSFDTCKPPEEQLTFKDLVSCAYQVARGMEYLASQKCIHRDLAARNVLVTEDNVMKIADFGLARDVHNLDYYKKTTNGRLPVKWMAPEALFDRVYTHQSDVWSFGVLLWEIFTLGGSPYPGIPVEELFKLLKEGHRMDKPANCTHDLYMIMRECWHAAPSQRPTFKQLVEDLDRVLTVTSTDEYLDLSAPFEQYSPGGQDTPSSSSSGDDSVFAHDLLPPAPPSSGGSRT
In short: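 Cytoplasmic domain of human wild-type FGFR3 (0.04 ng/μL) with 75 μM ATP and 1 μM FL-peptide 30, pH 7.4 HEPES/MgCl2 buffer, 1% DMSO, 50 min at 30 °C, EDTA-stopped. Substrate-product conversion read by mobility shift. IC50, pIC50 and Hill slope from 10-point 4-fold dilutions starting at 10 μM.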

[2] = target: T2, human FGFR3 V555M enzyme (cytoplasmic domain carrying V555M mutation) (Homo sapiens, UniProt P22607, V555M); assay: FGFR3 V555M mobility shift assay (enzymatic assay); type: biochemical; details: 30 μM ATP, 45 minutes at 30° C., Caliper EZ reader II
T2 construct: human FGFR3 V555M enzyme (cytoplasmic domain carrying V555M mutation, from Carna Biosciences); purchased Carna Biosciences
T2 sequence (P22607 397-806 V555M limits assumed): as the sequence (P22607 397-806 limits assumed) above, with V159M counted along it
In short: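 Cytoplasmic-domain FGFR3 V555M (0.04 ng/μL) with 30 μM ATP and 1 μM FL-peptide 30 in HEPES pH 7.4/MgCl2/Brij35/DTT, 1% DMSO, 45 min at 30 °C, EDTA-stopped. Mobility-shift read of substrate-product conversion; 10-point 4× dilution from 10 μM fitted for IC50/pIC50.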

[3] = tested on: NIH/3T3 cells overexpressing FGFR3 WT-TACC3 fusion protein; assay: NIH/3T3 FGFR3 WT-TACC3 cellular phospho-ERK assay (in vitro PD assay); type: cell-based; details: Mus musculus, NIH3T3; 1-hr incubation, AlphaLISA SureFire Ultra p-ERK1/2 (Thr202/Tyr204); read-out: NIH/3T3 FGFR3 WT-TACC3 pERK (IC50)
Procedure: NIH/3T3 FGFR3 WT-TACC3 Cellular Phospho-ERK Assay (In Vitro PD Assay)
50 μL of cell suspension (NIH/3T3 cells overexpressing FGFR3 WT-TACC3 fusion protein) (total 10,000 cells per well in growth medium (DMEM containing 1% Glutamax, 10% FBS and 1% Pen/Strep)) was seeded in a 384-well plate. After overnight incubation at 37° C. and 5% CO2, 5.5 μL of growth medium containing 10× testing compound was added into cell cultures (10 dose points with 4× serial dilution, starting with 10 μM, 0.1% DMSO final). After 1-hr incubation at 37° C. and 5% CO2, the medium was depleted and AlphaLISA SureFire Ultra p-ERK1/2 (Thr202/Tyr204) Assay Kit (from PerkinElmer) was applied for phospho-ERK level detection according to the kit instructions. The RFUs (relative fluorescence units were measured on EnVision microplate reader (ex. 680 nm, em. 615 nm) and concentration-response curve was plotted using Prism to calculate IC50 (M), pIC50 (−log IC50) and HillSlope value.

pIC50 [1]	pIC50 [2]	Compound	pIC50 [3]
8.59	8.87	C[C@@H]1CN(c2ccc3nc(-c4c(N[C@@H](C)c5ccccn5)c5ccccc5[nH]c4=O)[nH]c3c2)C[C@H](C)O1 [Compound 4, 3-(6-((2S,6R)-2,6-dimethylmorpholino)-1H-benzo[d]imidazol-2-yl)-4-(((S)-1-(pyridin-2-yl)ethyl)amino)quinolin-2(1H)-one]	8.41
8.66	9.03	C[C@H](Nc1c(-c2nc3ccc(N4CCOCC4)c(F)c3[nH]2)c(=O)[nH]c2ccccc12)c1ccccn1 [Compound 24, (S)-3-(7-fluoro-6-morpholino-1H-benzo[d]imidazol-2-yl)-4-((1-(pyridin-2-yl)ethyl)-amino)quinolin-2(1H)-one]	7.88
8.30	8.56	C[C@@H]1CN(c2ccc3nc(-c4c(N[C@@H](C)c5ccccn5)c5ccccc5[nH]c4=O)[nH]c3c2)C[C@@H](C)O1 [Compound 21, 3-(6-((2R,6R)-2,6-dimethylmorpholino)-1H-benzo[d]imidazol-2-yl)-4-(((S)-1-(pyridin-2-yl)ethyl)amino)quinolin-2(1H)-one]	8.08
9.47	9.67	C[C@H](Nc1c(-c2nc3ccc(N4CCOCC4)cc3[nH]2)c(=O)[nH]c2ccccc12)c1ncccn1 [Compound 2, (S)-3-(6-morpholino-1H-benzo[d]imidazol-2-yl)-4-((1-(pyrimidin-2-yl)ethyl)amino)-quinolin-2(1H)-one]	8.91
